Columns and labels:
Assay in all cases: relative viability (nuclei count vs DMSO), 5 days (fraction); higher = more cells survive
NCI-H1915 = tested on: NCI-H1915
Outline: (§1)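 Medians of duplicate plates are given as relative viability. That measure is the nuclei count in treated wells divided by the count in vehicle wells. Counts were taken on 4× images of lung cancer cell lines in 1536-well plates, 5 days after pin-tool dosing the day after seeding with one drug alone or a fixed anchor-drug dose plus five library-drug doses (not always all listed) in √10 steps.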

NCI-H358 = tested on: NCI-H358
Outline: as §1

NCI-H1975 = tested on: NCI-H1975
Outline: as §1

PC-3 [JPC-3] = tested on: PC-3 [JPC-3]
Outline: as §1

RERF-LC-KJ = tested on: RERF-LC-KJ
Outline: as §1

A-427 = tested on: A-427
Outline: as §1

SW 1573 = tested on: SW 1573
Outline: as §1

HOP-62 = tested on: HOP-62
Outline: as §1

NCI-H647 = tested on: NCI-H647
Outline: as §1

LXF-289 = tested on: LXF-289
Outline: as §1

NCI-H1792 = tested on: NCI-H1792
Outline: as §1

HCC-78 = tested on: HCC-78
Outline: as §1

LC-2-ad = tested on: LC-2-ad
Outline: as §1

HCC-15 = tested on: HCC-15
Outline: as §1

NCI-H460 = tested on: NCI-H460
Outline: as §1

NCI-H2228 = tested on: NCI-H2228
Outline: as §1

NCI-H2342 = tested on: NCI-H2342
Outline: as §1

NCI-H1755 = tested on: NCI-H1755
Outline: as §1

NCI-H1734 = tested on: NCI-H1734
Outline: as §1

LOU-NH91 = tested on: LOU-NH91
Outline: as §1

SK-LU-1 = tested on: SK-LU-1
Outline: as §1

NCI-H2126 = tested on: NCI-H2126
Outline: as §1

NCI-H2347 = tested on: NCI-H2347
Outline: as §1

Work on `NC(=O)Nc1cc(-c2cccc(F)c2)sc1C(=O)N[C@H]1CCCNC1` [AZD7762] + CC(=O)Nc1cccc(-n2c(=O)n(C3CC3)c(=O)c3c(Nc4ccc(I)cc4F)n(C)c(=O)c(C)c32)c1 [Trametinib] (partner 0.02 µM) yielded a relative viability (NCI-H1915; first compound 0.01 µM) of 0.342, a relative viability (NCI-H1915; first compound 0.03162 µM) of 0.332 and a relative viability (NCI-H1915; first compound 0.1 µM) of 0.305. The relative viability (NCI-H1915; first compound 0.3162 µM) was 0.362, the relative viability (NCI-H1915; first compound 1 µM) was 0.271 and the relative viability (NCI-H358; first compound 0.01 µM) was 0.136. The relative viability (NCI-H358; first compound 0.03162 µM) was 0.135, the relative viability (NCI-H358; first compound 0.1 µM) was 0.148 and the relative viability (NCI-H358; first compound 0.3162 µM) was 0.145. It also gave a relative viability (NCI-H358; first compound 1 µM) of 0.1, a relative viability (NCI-H1975; first compound 0.01 µM) of 0.341 and a relative viability (NCI-H1975; first compound 0.03162 µM) of 0.377. It also gave a relative viability (NCI-H1975; first compound 0.1 µM) of 0.331, a relative viability (NCI-H1975; first compound 0.3162 µM) of 0.345 and a relative viability (NCI-H1975; first compound 1 µM) of 0.24. It also gave a relative viability (PC-3 [JPC-3]; first compound 0.01 µM) of 0.699, a relative viability (PC-3 [JPC-3]; first compound 0.03162 µM) of 0.722 and a relative viability (PC-3 [JPC-3]; first compound 0.1 µM) of 0.69. It also gave a relative viability (PC-3 [JPC-3]; first compound 0.3162 µM) of 0.662, a relative viability (PC-3 [JPC-3]; first compound 1 µM) of 0.515 and a relative viability (RERF-LC-KJ; first compound 0.01 µM) of 0.878. For the same molecule, the relative viability (RERF-LC-KJ; first compound 0.03162 µM) was 0.888, the relative viability (RERF-LC-KJ; first compound 0.1 µM) was 0.996 and the relative viability (RERF-LC-KJ; first compound 0.3162 µM) was 0.874. The relative viability (RERF-LC-KJ; first compound 1 µM) was 0.693, the relative viability (A-427; first compound 0.01 µM) was 0.82 and the relative viability (A-427; first compound 0.03162 µM) was 0.849. It also gave a relative viability (A-427; first compound 0.1 µM) of 0.772, a relative viability (A-427; first compound 0.3162 µM) of 0.655 and a relative viability (A-427; first compound 1 µM) of 0.331. It also gave a relative viability (SW 1573; first compound 0.01 µM) of 0.741, a relative viability (SW 1573; first compound 0.03162 µM) of 0.502 and a relative viability (SW 1573; first compound 0.1 µM) of 0.584. For the same molecule, the relative viability (SW 1573; first compound 0.3162 µM) was 0.583, the relative viability (SW 1573; first compound 1 µM) was 0.342 and the relative viability (HOP-62; first compound 0.01 µM) was 0.363. It also gave a relative viability (HOP-62; first compound 0.03162 µM) of 0.367, a relative viability (HOP-62; first compound 0.1 µM) of 0.407 and a relative viability (HOP-62; first compound 0.3162 µM) of 0.37. The relative viability (HOP-62; first compound 1 µM) was 0.343, the relative viability (NCI-H647; first compound 0.01 µM) was 0.533 and the relative viability (NCI-H647; first compound 0.03162 µM) was 0.579. It also gave a relative viability (NCI-H647; first compound 0.1 µM) of 0.456, a relative viability (NCI-H647; first compound 0.3162 µM) of 0.384 and a relative viability (NCI-H647; first compound 1 µM) of 0.16. The relative viability (LXF-289; first compound 0.01 µM) was 0.618, the relative viability (LXF-289; first compound 0.03162 µM) was 0.699 and the relative viability (LXF-289; first compound 0.1 µM) was 0.692. The relative viability (LXF-289; first compound 0.3162 µM) was 0.458, the relative viability (LXF-289; first compound 1 µM) was 0.68 and the relative viability (NCI-H1792; first compound 0.01 µM) was 0.406. It also gave a relative viability (NCI-H1792; first compound 0.03162 µM) of 0.355, a relative viability (NCI-H1792; first compound 0.1 µM) of 0.589 and a relative viability (NCI-H1792; first compound 0.3162 µM) of 0.411. The relative viability (NCI-H1792; first compound 1 µM) was 0.527, the relative viability (HCC-78; first compound 0.01 µM) was 0.937 and the relative viability (HCC-78; first compound 0.03162 µM) was 0.864. It also gave a relative viability (HCC-78; first compound 0.1 µM) of 0.828, a relative viability (HCC-78; first compound 0.3162 µM) of 0.969 and a relative viability (HCC-78; first compound 1 µM) of 0.416. It also gave a relative viability (LC-2-ad; first compound 0.01 µM) of 0.914, a relative viability (LC-2-ad; first compound 0.03162 µM) of 0.9 and a relative viability (LC-2-ad; first compound 0.1 µM) of 0.906. It also gave a relative viability (LC-2-ad; first compound 0.3162 µM) of 0.647, a relative viability (LC-2-ad; first compound 1 µM) of 0.544 and a relative viability (HCC-15; first compound 0.01 µM) of 0.407. The relative viability (HCC-15; first compound 0.03162 µM) was 0.393, the relative viability (HCC-15; first compound 0.1 µM) was 0.413 and the relative viability (HCC-15; first compound 0.3162 µM) was 0.351. The relative viability (HCC-15; first compound 1 µM) was 0.443, the relative viability (NCI-H460; first compound 0.01 µM) was 0.327 and the relative viability (NCI-H460; first compound 0.03162 µM) was 0.179. It also gave a relative viability (NCI-H460; first compound 0.1 µM) of 0.226, a relative viability (NCI-H460; first compound 0.3162 µM) of 0.171 and a relative viability (NCI-H460; first compound 1 µM) of 0.0341. For the same molecule, the relative viability (NCI-H2228; first compound 0.01 µM) was 0.483, the relative viability (NCI-H2228; first compound 0.03162 µM) was 0.668 and the relative viability (NCI-H2228; first compound 0.1 µM) was 0.461. The relative viability (NCI-H2228; first compound 0.3162 µM) was 0.37, the relative viability (NCI-H2228; first compound 1 µM) was 0.187 and the relative viability (NCI-H2342; first compound 0.01 µM) was 0.861. The relative viability (NCI-H2342; first compound 0.03162 µM) was 0.756, the relative viability (NCI-H2342; first compound 0.1 µM) was 0.828 and the relative viability (NCI-H2342; first compound 0.3162 µM) was 0.863. For the same molecule, the relative viability (NCI-H2342; first compound 1 µM) was 0.97, the relative viability (NCI-H1755; first compound 0.01 µM) was 0.788 and the relative viability (NCI-H1755; first compound 0.03162 µM) was 0.823. For the same molecule, the relative viability (NCI-H1755; first compound 0.1 µM) was 0.76, the relative viability (NCI-H1755; first compound 0.3162 µM) was 0.694 and the relative viability (NCI-H1755; first compound 1 µM) was 0.635. For the same molecule, the relative viability (NCI-H1734; first compound 0.01 µM) was 0.761, the relative viability (NCI-H1734; first compound 0.03162 µM) was 0.683 and the relative viability (NCI-H1734; first compound 0.1 µM) was 0.812. It also gave a relative viability (NCI-H1734; first compound 0.3162 µM) of 0.641, a relative viability (NCI-H1734; first compound 1 µM) of 0.562 and a relative viability (LOU-NH91; first compound 0.01 µM) of 0.78. For the same molecule, the relative viability (LOU-NH91; first compound 0.03162 µM) was 0.793, the relative viability (LOU-NH91; first compound 0.1 µM) was 0.761 and the relative viability (LOU-NH91; first compound 0.3162 µM) was 0.66. It also gave a relative viability (LOU-NH91; first compound 1 µM) of 0.67, a relative viability (SK-LU-1; first compound 0.01 µM) of 0.553 and a relative viability (SK-LU-1; first compound 0.03162 µM) of 0.609. It also gave a relative viability (SK-LU-1; first compound 0.1 µM) of 0.393, a relative viability (SK-LU-1; first compound 0.3162 µM) of 0.188 and a relative viability (SK-LU-1; first compound 1 µM) of 0.24. For the same molecule, the relative viability (NCI-H2126; first compound 0.01 µM) was 0.547, the relative viability (NCI-H2126; first compound 0.03162 µM) was 0.629 and the relative viability (NCI-H2126; first compound 0.1 µM) was 0.529. The relative viability (NCI-H2126; first compound 0.3162 µM) was 0.639, the relative viability (NCI-H2126; first compound 1 µM) was 0.675 and the relative viability (NCI-H2347; first compound 0.01 µM) was 0.313. For the same molecule, the relative viability (NCI-H2347; first compound 0.03162 µM) was 0.279, the relative viability (NCI-H2347; first compound 0.1 µM) was 0.281 and the relative viability (NCI-H2347; first compound 0.3162 µM) was 0.287. For the same molecule, the relative viability (NCI-H2347; first compound 1 µM) was 0.305.

From the supplement of paper PMC10307832
